Tests used:
Test in all cases: Kinase panel (Carna)
Assay type in all cases: biochemical
CHK1 = biological target: T1, CHK1 (Homo sapiens, UniProt O14757)
T1 construct: purchased Carna Biosciences
Source text: (§1) Detailed information on the assay conditions is available on the website of Carna Biosciences (http://www.carnabio.com).

MST2 = biological target: T2, MST2 (Homo sapiens, UniProt Q13188)
T2 construct: purchased Carna Biosciences
Source text: as §1

BRSK2 = biological target: T3, BRSK2 (Homo sapiens, UniProt Q8IWQ3)
T3 construct: purchased Carna Biosciences
Source text: as §1

SPHK2 = biological target: T4, SPHK2 (Homo sapiens, UniProt Q9NRA0)
T4 construct: purchased Carna Biosciences
Source text: as §1

PKCα = biological target: T5, PKCα (Homo sapiens, UniProt P17252)
T5 construct: purchased Carna Biosciences

EPHA7 = biological target: T6, EPHA7 (Homo sapiens, UniProt Q15375)
T6 construct: purchased Carna Biosciences

MINK = biological target: T7, MINK (Homo sapiens, UniProt Q8N4C8)
T7 construct: purchased Carna Biosciences
Source text: as §1

CK1γ2 = biological target: T8, CK1γ2 (Homo sapiens, UniProt P78368)
T8 construct: purchased Carna Biosciences

TRKB = biological target: T9, TRKB (Homo sapiens, UniProt Q16620)
T9 construct: purchased Carna Biosciences
Source text: as §1

CHK2 = biological target: T10, CHK2 (Homo sapiens, UniProt O96017)
T10 construct: purchased Carna Biosciences

PDGFRβ = biological target: T11, PDGFRβ (Homo sapiens, UniProt P09619)
T11 construct: purchased Carna Biosciences
Source text: as §1

SRPK2 = biological target: T12, SRPK2 (Homo sapiens, UniProt P78362)
T12 construct: purchased Carna Biosciences
Source text: as §1

FAK = biological target: T13, FAK (Homo sapiens, UniProt Q05397)
T13 construct: purchased Carna Biosciences
Source text: as §1

MOS_Cascade = biological target: T14, MOS_Cascade (Homo sapiens, UniProt P00540)
T14 construct: purchased Carna Biosciences

AKT3 = biological target: T15, AKT3 (Homo sapiens, UniProt Q9Y243)
T15 construct: purchased Carna Biosciences
Source text: as §1

PKCγ = biological target: T16, PKCγ (Homo sapiens, UniProt P05129)
T16 construct: purchased Carna Biosciences
Source text: as §1

FGFR4 = biological target: T17, FGFR4 (Homo sapiens, UniProt P22455)
T17 construct: purchased Carna Biosciences

CRIK = biological target: T18, CRIK (Homo sapiens, UniProt O14578)
T18 construct: purchased Carna Biosciences

MLK2_Cascade = biological target: T19, MLK2_Cascade (Homo sapiens, UniProt Q02779)
T19 construct: purchased Carna Biosciences
Source text: as §1

SIK = biological target: T20, SIK (Homo sapiens, UniProt P57059)
T20 construct: purchased Carna Biosciences

CDC2/CycB1 = biological target: T21, CDC2/CycB1 (Homo sapiens, UniProt P06493)
T21 construct: purchased Carna Biosciences

AXL = biological target: T22, AXL (Homo sapiens, UniProt P30530)
T22 construct: purchased Carna Biosciences
Source text: as §1

HIPK1 = biological target: T23, HIPK1 (Homo sapiens, UniProt Q86Z02)
T23 construct: purchased Carna Biosciences
Source text: as §1

SYK = biological target: T24, SYK (Homo sapiens, UniProt P43405)
T24 construct: purchased Carna Biosciences
Source text: as §1

FLT3 = biological target: T25, FLT3 (Homo sapiens, UniProt P36888)
T25 construct: purchased Carna Biosciences
Source text: as §1

TEC = biological target: T26, TEC (Homo sapiens, UniProt P42680)
T26 construct: purchased Carna Biosciences
Source text: as §1

p70S6Kβ = biological target: T27, p70S6Kβ (Homo sapiens, UniProt Q9UBS0)
T27 construct: purchased Carna Biosciences
Source text: as §1

DLK_Cascade = biological target: T28, DLK_Cascade (Homo sapiens, UniProt Q12852)
T28 construct: purchased Carna Biosciences
Source text: as §1

MARK2 = biological target: T29, MARK2 (Homo sapiens, UniProt Q7KZI7)
T29 construct: purchased Carna Biosciences
Source text: as §1

TAK1-TAB1_Cascade = biological target: T30, TAK1-TAB1_Cascade (Homo sapiens, UniProt O43318)
T30 construct: purchased Carna Biosciences
Source text: as §1

EPHB2 = biological target: T31, EPHB2 (Homo sapiens, UniProt P29323)
T31 construct: purchased Carna Biosciences
Source text: as §1

LYNb = biological target: T32, LYNb (Homo sapiens, UniProt P07948)
T32 construct: purchased Carna Biosciences
Source text: as §1

CSK = biological target: T33, CSK (Homo sapiens, UniProt P41240)
T33 construct: purchased Carna Biosciences
Source text: as §1

IKKε = biological target: T34, IKKε (Homo sapiens, UniProt Q14164)
T34 construct: purchased Carna Biosciences
Source text: as §1

MAP3K5_Cascade = biological target: T35, MAP3K5_Cascade (Homo sapiens, UniProt Q99683)
T35 construct: purchased Carna Biosciences
Source text: as §1

TYK2 = biological target: T36, TYK2 (Homo sapiens, UniProt P29597)
T36 construct: purchased Carna Biosciences
Source text: as §1

p70S6K = biological target: T37, p70S6K (Homo sapiens, UniProt P23443)
T37 construct: purchased Carna Biosciences
Source text: as §1

p38γ = biological target: T38, p38γ (Homo sapiens, UniProt P53778)
T38 construct: purchased Carna Biosciences
Source text: as §1

EEF2K = biological target: T39, EEF2K (Homo sapiens, UniProt O00418)
T39 construct: purchased Carna Biosciences
Source text: as §1

FYN = biological target: T40, FYN (Homo sapiens, UniProt P06241)
T40 construct: purchased Carna Biosciences
Source text: as §1

IRAK1 = biological target: T41, IRAK1 (Homo sapiens, UniProt P51617)
T41 construct: purchased Carna Biosciences
Source text: as §1

EPHA1 = biological target: T42, EPHA1 (Homo sapiens, UniProt P21709)
T42 construct: purchased Carna Biosciences

NuaK2 = biological target: T43, NuaK2 (Homo sapiens, UniProt Q9H093)
T43 construct: purchased Carna Biosciences

EGFR = biological target: T44, EGFR (Homo sapiens, UniProt P00533)
T44 construct: purchased Carna Biosciences

ZAP70 = biological target: T45, ZAP70 (Homo sapiens, UniProt P43403)
T45 construct: purchased Carna Biosciences
Source text: as §1

T8 sequence (P78368 whole entry): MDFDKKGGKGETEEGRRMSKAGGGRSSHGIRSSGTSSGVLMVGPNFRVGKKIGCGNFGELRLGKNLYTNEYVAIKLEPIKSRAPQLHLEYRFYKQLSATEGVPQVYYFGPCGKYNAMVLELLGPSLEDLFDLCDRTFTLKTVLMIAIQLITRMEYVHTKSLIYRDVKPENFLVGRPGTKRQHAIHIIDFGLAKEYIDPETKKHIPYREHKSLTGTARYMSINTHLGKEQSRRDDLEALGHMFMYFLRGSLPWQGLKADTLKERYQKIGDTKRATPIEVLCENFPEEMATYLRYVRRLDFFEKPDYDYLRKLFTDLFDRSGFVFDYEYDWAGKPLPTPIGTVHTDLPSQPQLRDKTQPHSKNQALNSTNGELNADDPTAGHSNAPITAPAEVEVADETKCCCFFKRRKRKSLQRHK
T13 sequence (Q05397 whole entry): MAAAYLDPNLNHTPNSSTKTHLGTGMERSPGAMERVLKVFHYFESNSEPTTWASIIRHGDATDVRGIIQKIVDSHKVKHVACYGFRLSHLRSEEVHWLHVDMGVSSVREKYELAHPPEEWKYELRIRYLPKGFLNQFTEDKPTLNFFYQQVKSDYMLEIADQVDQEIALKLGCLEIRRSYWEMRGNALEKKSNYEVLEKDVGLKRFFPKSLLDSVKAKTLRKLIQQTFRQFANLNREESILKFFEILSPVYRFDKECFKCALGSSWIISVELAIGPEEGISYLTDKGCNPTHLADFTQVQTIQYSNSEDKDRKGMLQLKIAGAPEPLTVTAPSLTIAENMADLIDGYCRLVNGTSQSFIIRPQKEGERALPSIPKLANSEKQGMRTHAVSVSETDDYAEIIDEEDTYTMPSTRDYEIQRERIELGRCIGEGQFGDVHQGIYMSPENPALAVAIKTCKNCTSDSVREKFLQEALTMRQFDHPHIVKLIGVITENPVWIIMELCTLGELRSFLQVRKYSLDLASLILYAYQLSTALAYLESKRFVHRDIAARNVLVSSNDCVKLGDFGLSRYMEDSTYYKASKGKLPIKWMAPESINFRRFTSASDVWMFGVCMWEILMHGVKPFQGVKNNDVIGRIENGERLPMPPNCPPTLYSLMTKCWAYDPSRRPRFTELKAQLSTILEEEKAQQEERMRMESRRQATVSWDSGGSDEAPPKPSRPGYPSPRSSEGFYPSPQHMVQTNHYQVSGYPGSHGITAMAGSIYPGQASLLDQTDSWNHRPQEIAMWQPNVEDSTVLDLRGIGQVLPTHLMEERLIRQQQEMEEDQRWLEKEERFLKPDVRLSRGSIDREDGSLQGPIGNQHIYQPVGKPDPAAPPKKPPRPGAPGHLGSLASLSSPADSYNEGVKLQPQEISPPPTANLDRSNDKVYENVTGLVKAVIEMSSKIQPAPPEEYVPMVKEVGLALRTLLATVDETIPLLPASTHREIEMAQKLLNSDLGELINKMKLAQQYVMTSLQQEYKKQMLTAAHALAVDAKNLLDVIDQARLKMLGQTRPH
T31 sequence (P29323 19-1055): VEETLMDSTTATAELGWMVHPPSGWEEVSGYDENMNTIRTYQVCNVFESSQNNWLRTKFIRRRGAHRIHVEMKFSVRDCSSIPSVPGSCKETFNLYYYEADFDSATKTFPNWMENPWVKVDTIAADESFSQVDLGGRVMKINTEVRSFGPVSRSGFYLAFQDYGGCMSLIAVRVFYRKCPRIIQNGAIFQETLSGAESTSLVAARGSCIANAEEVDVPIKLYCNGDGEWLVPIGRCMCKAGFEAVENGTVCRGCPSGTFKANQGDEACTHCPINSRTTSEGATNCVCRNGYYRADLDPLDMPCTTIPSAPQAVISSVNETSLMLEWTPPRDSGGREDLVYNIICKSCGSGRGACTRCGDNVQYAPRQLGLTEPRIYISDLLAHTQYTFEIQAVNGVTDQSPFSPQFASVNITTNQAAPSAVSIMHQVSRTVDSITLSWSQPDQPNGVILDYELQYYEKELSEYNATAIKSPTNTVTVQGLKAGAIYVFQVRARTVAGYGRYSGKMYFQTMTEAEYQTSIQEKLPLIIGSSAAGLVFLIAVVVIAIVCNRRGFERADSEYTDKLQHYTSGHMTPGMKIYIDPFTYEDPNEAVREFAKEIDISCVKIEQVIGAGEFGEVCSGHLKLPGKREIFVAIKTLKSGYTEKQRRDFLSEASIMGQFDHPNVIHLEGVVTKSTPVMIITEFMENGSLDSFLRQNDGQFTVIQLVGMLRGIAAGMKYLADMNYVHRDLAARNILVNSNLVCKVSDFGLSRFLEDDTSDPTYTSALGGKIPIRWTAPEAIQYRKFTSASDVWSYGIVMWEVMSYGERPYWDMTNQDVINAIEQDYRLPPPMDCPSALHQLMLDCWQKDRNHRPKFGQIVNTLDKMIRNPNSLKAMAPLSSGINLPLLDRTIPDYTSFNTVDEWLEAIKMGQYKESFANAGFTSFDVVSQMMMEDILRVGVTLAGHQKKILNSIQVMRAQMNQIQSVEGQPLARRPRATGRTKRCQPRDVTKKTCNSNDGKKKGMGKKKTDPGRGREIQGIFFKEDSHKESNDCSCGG
T17 sequence (P22455 22-802): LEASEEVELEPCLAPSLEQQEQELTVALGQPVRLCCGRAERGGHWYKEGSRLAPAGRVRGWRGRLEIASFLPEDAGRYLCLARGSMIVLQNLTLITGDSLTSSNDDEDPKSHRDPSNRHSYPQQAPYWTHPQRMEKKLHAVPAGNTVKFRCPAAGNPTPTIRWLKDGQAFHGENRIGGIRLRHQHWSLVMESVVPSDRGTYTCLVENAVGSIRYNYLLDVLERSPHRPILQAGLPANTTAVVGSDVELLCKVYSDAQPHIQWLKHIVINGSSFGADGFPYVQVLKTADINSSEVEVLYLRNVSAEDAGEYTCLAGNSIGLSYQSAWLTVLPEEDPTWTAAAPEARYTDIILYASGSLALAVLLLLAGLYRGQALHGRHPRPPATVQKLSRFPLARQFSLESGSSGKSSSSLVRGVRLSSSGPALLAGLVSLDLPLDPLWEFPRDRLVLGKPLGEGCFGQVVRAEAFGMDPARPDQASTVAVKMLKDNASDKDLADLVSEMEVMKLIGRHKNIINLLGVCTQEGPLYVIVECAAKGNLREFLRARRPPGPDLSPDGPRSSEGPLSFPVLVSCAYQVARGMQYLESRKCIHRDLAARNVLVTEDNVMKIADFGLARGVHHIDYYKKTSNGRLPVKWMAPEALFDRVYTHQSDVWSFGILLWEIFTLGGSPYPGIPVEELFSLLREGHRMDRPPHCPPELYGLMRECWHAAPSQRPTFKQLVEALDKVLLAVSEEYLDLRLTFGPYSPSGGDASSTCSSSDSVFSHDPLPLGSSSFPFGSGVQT
T32 sequence (P07948 1-491 isoform P07948-2): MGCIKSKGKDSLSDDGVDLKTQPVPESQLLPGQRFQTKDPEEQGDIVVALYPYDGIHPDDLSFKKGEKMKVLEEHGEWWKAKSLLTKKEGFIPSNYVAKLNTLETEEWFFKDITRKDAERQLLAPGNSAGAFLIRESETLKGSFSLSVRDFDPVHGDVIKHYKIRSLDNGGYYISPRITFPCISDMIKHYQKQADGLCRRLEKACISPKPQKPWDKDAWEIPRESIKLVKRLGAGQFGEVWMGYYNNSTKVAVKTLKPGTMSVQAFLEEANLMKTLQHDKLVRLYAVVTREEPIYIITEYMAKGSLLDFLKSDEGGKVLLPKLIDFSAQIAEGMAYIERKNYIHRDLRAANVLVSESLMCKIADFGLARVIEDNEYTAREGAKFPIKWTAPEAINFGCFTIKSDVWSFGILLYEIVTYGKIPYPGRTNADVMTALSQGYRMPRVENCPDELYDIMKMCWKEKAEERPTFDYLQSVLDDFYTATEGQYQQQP
T37 sequence (P23443 whole entry): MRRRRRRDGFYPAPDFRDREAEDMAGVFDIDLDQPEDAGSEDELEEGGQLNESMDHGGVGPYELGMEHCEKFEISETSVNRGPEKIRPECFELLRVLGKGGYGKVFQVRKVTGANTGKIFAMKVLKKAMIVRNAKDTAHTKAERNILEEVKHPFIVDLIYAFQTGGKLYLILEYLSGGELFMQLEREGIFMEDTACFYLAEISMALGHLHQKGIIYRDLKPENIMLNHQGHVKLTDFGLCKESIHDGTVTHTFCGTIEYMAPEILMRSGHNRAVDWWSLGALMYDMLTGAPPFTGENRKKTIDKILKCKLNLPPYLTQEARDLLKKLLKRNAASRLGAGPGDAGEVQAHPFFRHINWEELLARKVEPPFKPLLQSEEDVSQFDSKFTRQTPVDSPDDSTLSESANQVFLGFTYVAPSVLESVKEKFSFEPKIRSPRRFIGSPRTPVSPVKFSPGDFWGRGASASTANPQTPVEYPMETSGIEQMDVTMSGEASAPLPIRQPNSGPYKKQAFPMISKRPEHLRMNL

## COc1ccc(/C=C2\SC(=S)NC2=O)cc1C#C[Si](C)(C)C [FINDY]
CHK1
  inhibition at 10 µM: -119%
MST2
  inhibition at 10 µM: -5.7%
BRSK2
  inhibition at 10 µM: 5.7%
SPHK2
  inhibition at 10 µM: 4.9%
PKCα
  inhibition at 10 µM: 0.6%
EPHA7
  inhibition at 10 µM: 18.7%
MINK
  inhibition at 10 µM: 5%
CK1γ2
  inhibition at 10 µM: 27.7%
TRKB
  inhibition at 10 µM: 4.9%
CHK2
  inhibition at 10 µM: 6.3%
PDGFRβ
  inhibition at 10 µM: 8.2%
SRPK2
  inhibition at 10 µM: -5%
FAK
  inhibition at 10 µM: 7.3%
MOS_Cascade
  inhibition at 10 µM: 60.1%
AKT3
  inhibition at 10 µM: 18.9%
PKCγ
  inhibition at 10 µM: 4.1%
FGFR4
  inhibition at 10 µM: 6.9%
CRIK
  inhibition at 10 µM: 1.9%
MLK2_Cascade
  inhibition at 10 µM: 41%
SIK
  inhibition at 10 µM: 15%
CDC2/CycB1
  inhibition at 10 µM: 43.4%
AXL
  inhibition at 10 µM: 6.7%
HIPK1
  inhibition at 10 µM: 11.8%
SYK
  inhibition at 10 µM: 72.8%
FLT3
  inhibition at 10 µM: 16%
TEC
  inhibition at 10 µM: 32%
p70S6Kβ
  inhibition at 10 µM: 19.9%
DLK_Cascade
  inhibition at 10 µM: 23.5%
MARK2
  inhibition at 10 µM: 60.8%
TAK1-TAB1_Cascade
  inhibition at 10 µM: 52.7%
EPHB2
  inhibition at 10 µM: 10.1%
LYNb
  inhibition at 10 µM: 11.4%
CSK
  inhibition at 10 µM: 6.7%
IKKε
  inhibition at 10 µM: -2%
MAP3K5_Cascade
  inhibition at 10 µM: 32.1%
TYK2
  inhibition at 10 µM: -5.4%
p70S6K
  inhibition at 10 µM: 7.4%
p38γ
  inhibition at 10 µM: 5%
EEF2K
  inhibition at 10 µM: -3.7%
FYN
  inhibition at 10 µM: 58.4%
IRAK1
  inhibition at 10 µM: -1.1%
EPHA1
  inhibition at 10 µM: 40.5%
NuaK2
  inhibition at 10 µM: -9.3%
EGFR
  inhibition at 10 µM: -5.1%
ZAP70
  inhibition at 10 µM: 12.9%
